Reference: patent US20120231450A1, “NOVEL PACEMAKER CELL” (priority 2009, published 2012)

Columns and labels:
[1] = tested on: HCN4-GFP positive cells derived from H7 embryoid body (pacemaker cells); experiment: Patch clamp measurement of the beating rate (spontaneous excitation) of the pacemaker cells; type: cell-based, human; settings: for effect on beating rate of the pacemaker cells (in words): drug added to perfusion solution, patch clamp
Procedure: Patch clamp: Cells which had been collected by cell sorting were seeded on gelatin-coated, 8-mm diameter cover slips (Warner Instruments) in a number of about 1,500 cells. On or after the next day, a patch clump method was used to observe the automaticity and to analyze functions of ion channels.
The quantification of electrical activities by a patch clump method and of contraction by video recording was carried out.
The quantification of electrical activities by a patch clump method was carried out.
It was ascertained that the beating rate of the pacemaker cells according to the present invention was increased by means of isoproterenol, a sympathetic stimulant, and decreased by means of carbachol, a parasympathetic stimulant. In these experiments, a patch clamp method was used to measure directly electrical phenomena (spontaneous excitation) from the pacemaker cells. To the perfusion solution were added isoproterenol, a sympathetic stimulant, which increased [sic], and then carbachol, a parasympathetic stimulant, to examine their effects.

[2] = tested on: heart of a rat with atrioventricular block; experiment: Intraperitoneal isoproterenol in rat with atrioventricular block implanted with pacemaker cells, electrocardiogram; type: in vivo; settings: isoproterenol injected into the peritoneal cavity; AVB rat with implants; FIG. 19
Procedure: Male ICR rats of 10 weeks old were used. Rats were administered with a 0.2 ml injection of an anesthetic (0.2% pentobarbital, MiliQ). Breathing assistance was provided by a mechanical ventilator and electrocardiogram monitoring was performed. A thoracotomy was made using an electrosurgical knife and 15 μl of 30% glycerol was injected using a microsyringe, into a place where the pulmonary artery is attached to the heart. It was ascertained, from the electrocardiogram, whether AVE wave forms (decrease in the beating rate, independent P and QRS waves) appeared when the injection allowed the atrioventricular node to be damaged. If AVB wave forms were not identified, injection of glycerol was done again. Thirty minutes after AVB wave forms were identified, the chest was closed after AVB wave forms were identified on the electrocardiogram. The ventilator was removed from each of the rats, which were subjected to oxygen inhalation at 37° C. When recovered from anesthesia, the rats were returned back to their cages. Pacemaker cells which were GFP positive cells were selected and collected by cell sorting. The pacemaker cells were collected in conical tubes, and then centrifuged at 1,000 rpm for 5 minutes to form a cell pellet, which was then suspended in differentiation induction medium. […]

| SMILES | beating rate in the presence of isoproterenol ([1]; 10^−5 M isoproterenol in perfusion solution, before: 54 beats per 10 seconds, FIG. 16) | effect on beating rate of the pacemaker cells (in words) [1] | beating rate after washing out of isoproterenol ([1]; washout after 10^−5 M isoproterenol, FIG. 16) | ventricular rhythm resulting from the implanted pacemaker cells after isoproterenol [2] | beating rate in the presence of carbachol ([1]; carbachol in perfusion solution, after isoproterenol washout, before: 17 beats per 10 seconds, FIG. 16) | beating rate after washing out of carbachol ([1]; carbachol washed out, FIG. 16) |
| --- | --- | --- | --- | --- | --- | --- |
| CC(C)NCC(O)c1ccc(O)c(O)c1 (stereo not shown) [isoproterenol] | 61 beats per 10 seconds | increased | 45 beats per 10 seconds | accelerated (tachycardia) | – | – |
| C[N+](C)(C)CCOC(N)=O [carbachol] | – | decreased | – | – | 8 beats per 10 seconds | 14 beats per 10 seconds |
